{"source": "patent US12233100B1", "about": "“Composition for improving respiratory health of companion animals” (priority 2024, dated 2025)", "tested_on": "IgE", "assay": "IgE content in the serum (ELISA)", "assay_type": "in vivo", "conditions": "positive control group, 30 mg/kg", "method": "In order to measure IgE content in the serum, enzyme-linked immunosorbent assay (ELISA) (an antigen-antibody amount measurement method) kit was used. 100 μl of each of the standard solution and the serum entered each well, was reacted at 4° C. for 10 hours using a rotary agitator and then washed 4 times with a washing solution.\nAfter completely removing the washing solution, 100 μl of a detection antibody entered each well, followed by rotational-agitation at room temperature for 1 hour and then washing the same 4 times with the washing solution. After washing, 100 μl of HRP-Streptavidin (enzyme activity and adsorption protein) solution entered each well, followed by rotational-agitation at room temperature for 45 minutes and then washing the same with 1× washing solution. Further, 100 μl of TMB One-step detection reagent entered each well, followed by rotational-agitation in a dark room for 30 minutes, and then, treatment with 50 μl of a reaction stopping reagent. Then, the absorbance was measured at […], compared to IgE standard curve to convert a content (pg/ml)."}
{"smiles": "CC(C)(O)c1ccccc1CC[C@@H](SCC1(CC(=O)O)CC1)c1cccc(/C=C/c2ccc3ccc(Cl)cc3n2)c1", "note": "[monteluksat, montelukast]", "values": [{"measurement": "IgE content in the serum", "result": 347, "unit": "pg/mL"}]}
